Source: ChEMBL document CHEMBL1137288, “Antiprotozoal activities of new bis-chlorophenyl derivatives of bicyclic octanes and aza-nonanes” (Bioorg Med Chem Lett, 2006)

Assays:
[1] = Selectivity index, IC50 for L6 cells/IC50 for Plasmodium falciparum K1; type: functional
L6 = assay: Cytotoxicity against L6 cells; type: cell-based; conditions: Rattus norvegicus
[2] = Selectivity index, IC50 for L6 cells/ IC50 for Trypanosoma brucei rhodesience; type: functional
Plasmodium falciparum = assay: Antiprotozoal activity against chloroquine-, pyrimethamine-resistant Plasmodium falciparum K1; type: functional, organism-based
[3] = test system: Trypanosoma brucei rhodesiense; assay: Antiprotozoal activity against Trypanosoma brucei rhodesiense STIB900; type: functional, organism-based
[4] = test system: Trypanosoma brucei brucei; assay: Survival of NMRI mouse infected with Trypanosoma brucei brucei at 50 mg/kg, ip; type: functional; conditions: route intraperitoneal
[5] = test system: Trypanosoma brucei brucei; assay: Survival of NMRI mouse infected with Trypanosoma brucei brucei at 0.5 mg/kg, ip; type: functional; conditions: route intraperitoneal

Row | Structure (SMILES) | Ratio IC50 [1] | IC50 (L6) [µM] | Ratio IC50 [2] | IC50 (Plasmodium falciparum) [µM] | IC50 [3] [µM] | Mean survival days [4] [days] | Mean survival days [5] [days]
1 | O/N=C1/CC2(N3CCCC3)CC(c3ccc(Cl)cc3)C1C(c1ccc(Cl)cc1)C2 (centres undefined) | 27.26 | 5.81 | 3.85 | 0.19 | 1.51 |  | 
2 | O=C1CC2(N3CCCCC3)CC(c3ccccc3)C(N1)C(c1ccccc1)C2 (centres undefined) | 17.97 | 234 | 6.38 | 13 | 36.6 |  | 
3 | COc1ccc(C2CC3(N4CCCC4)CC(O)C2C(c2ccc(OC)cc2)C3)cc1 (centres undefined) | 6.58 | 17.9 | 2.35 | 2.72 | 7.61 |  | 
4 | COc1ccc(C2CC3(N4CCCCC4)CC(O)C2C(c2ccc(OC)cc2)C3)cc1 (centres undefined) | 8.95 | 44.6 | 3.13 | 4.98 | 14.2 |  | 
5 | OC1CC2(N3CCCC3)CC(c3ccc(Cl)cc3)C1C(c1ccc(Cl)cc1)C2 (centres undefined) | 6.77 | 3.59 | 9.7 | 0.53 | 0.37 |  | 
6 | C[C@@H]1CC[C@H]2[C@@H](C)C(=O)O[C@@H]3O[C@@]4(C)CC[C@@H]1[C@]32OO4 [ARTEMISININ] | 70390 |  |  | 0.0064 |  |  | 
7 | Clc1ccc(C2CC3(N4CCCC4)CCNC2C(c2ccc(Cl)cc2)C3)cc1 (centres undefined) | 40.24 | 10.1 | 152.4 | 0.25 | 0.066 | 5.75 | 
8 | O/N=C1\CC2(N3CCCCC3)CC(c3ccc(Cl)cc3)C1C(c1ccc(Cl)cc1)C2 (centres undefined) | 17.5 | 8.75 | 2.62 | 0.5 | 3.34 |  | 
9 | O=C1CC2(N3CCCCC3)CC(c3ccccc3)C1C(c1ccccc1)C2 (centres undefined) | 11.88 | 46.9 | 5.78 | 3.95 | 8.12 |  | 
10 | c1ccc(C2CC3(N4CCCCC4)CCNC2C(c2ccccc2)C3)cc1 (centres undefined) | 140.22 |  | 13.66 |  |  |  | 
11 | O=C1CC2(N3CCCC3)CC(c3ccccc3)C1C(c1ccccc1)C2 (centres undefined) | 22.22 | 26.4 | 3.29 | 1.19 | 8.03 |  | 
12 | OC1CC2(N3CCCC3)CC(c3ccccc3)C1C(c1ccccc1)C2 (centres undefined) | 11.2 | 26.8 | 6.28 | 2.39 | 4.26 |  | 
13 | Nc1nc(N)nc(Nc2ccc([As]3SCC(CO)S3)cc2)n1 (centres undefined) [MELARSOPROL] |  |  | 1995 |  |  |  | 42.5
14 | O/N=C1\CC2(N3CCCCC3)CC(c3ccccc3)C1C(c1ccccc1)C2 (centres undefined) | 161.1 | 24.2 | 6.6 | 0.15 | 3.66 |  | 
15 | CN(C)C12C/C(=N\O)C(C(c3ccccc3)C1)C(c1ccccc1)C2 (centres undefined) | 119.4 | 150 | 19.61 | 1.26 | 7.67 |  | 
16 | O/N=C1\CC2(N3CCCC3)CC(c3ccccc3)C1C(c1ccccc1)C2 (centres undefined) | 168.1 | 13.5 | 7.31 | 0.08 | 1.84 |  | 
17 | Cc1ccc(C(=O)Nc2ccc(S(=O)(=O)O)c3cc(S(=O)(=O)O)cc(S(=O)(=O)O)c23)cc1NC(=O)c1cccc(NC(=O)Nc2cccc(C(=O)Nc3cc(C(=O)Nc4ccc(S(=O)(=O)O)c5cc(S(=O)(=O)O)cc(S(=O)(=O)O)c45)ccc3C)c2)c1 [SURAMIN] |  | 4720 | 629933 |  | 0.0075 |  | 
18 | c1ccc(C2CC3(N4CCCC4)CCNC2C(c2ccccc2)C3)cc1 (centres undefined) | 215 |  | 103.8 |  |  |  | 

Row | Structure (SMILES) | Ratio IC50 [1] | IC50 (L6) [µM] | Ratio IC50 [2] | IC50 (Plasmodium falciparum) [µM] | IC50 [3] [µM] | Mean survival days [4] [days] | Mean survival days [5] [days]
19 | Clc1ccc(C2CC3(N4CCCCC4)CCNC2C(c2ccc(Cl)cc2)C3)cc1 (centres undefined) | 17.61 | 8.1 | 124.6 | 0.46 | 0.065 | 10.25 | 
20 | O/N=C1\CC2(N3CCCC3)CC(c3ccc(Cl)cc3)C1C(c1ccc(Cl)cc1)C2 (centres undefined) | 24.82 | 12.7 | 7.49 | 0.51 | 1.69 |  | 
21 | CN(C)C12CC(O)C(C(c3ccccc3)C1)C(c1ccccc1)C2 (centres undefined) | 8.52 | 132 | 44.91 | > 15.6 | 2.95 |  | 
22 | CN(C)C12C/C(=N\O)C(C(c3ccc(Cl)cc3)C1)C(c1ccc(Cl)cc1)C2 (centres undefined) | 7.82 | 7.82 | 5.21 | 1 | 1.5 |  | 
23 | CN(C)C12CC(=O)NC(C(c3ccccc3)C1)C(c1ccccc1)C2 (centres undefined) | 192.2 | > 269 | 7.09 | 1.4 | 38 |  | 
24 | OC1CC2(N3CCCCC3)CC(c3ccccc3)C1C(c1ccccc1)C2 (centres undefined) | 44.45 | 37.3 | 6.99 | 0.84 | 5.34 |  | 
25 | OC(c1cc(C(F)(F)F)nc2c(C(F)(F)F)cccc12)C1CCCCN1 (centres undefined) [MEFLOQUINE] |  | 11.4 |  |  |  |  | 
26 | CN(C)C12CC(=O)C(C(c3ccccc3)C1)C(c1ccccc1)C2 (centres undefined) | 2.32 | 24.6 | 2.46 | > 10.6 | 9.99 |  | 
27 | CN(C)C12CCNC(C(c3ccccc3)C1)C(c1ccccc1)C2 (centres undefined) | 388.6 |  | 181.3 |  |  |  | 
28 | CN(C)C12CC(O)C(C(c3ccc(Cl)cc3)C1)C(c1ccc(Cl)cc1)C2 (centres undefined) | 8.95 | 8.77 | 27.41 | 0.98 | 0.32 |  | 
29 | COc1ccc(C2CC3(N(C)C)CC(=O)C2C(c2ccc(OC)cc2)C3)cc1 (centres undefined) | 9.66 | 52.4 | 10.47 | 5.43 | 5.01 |  | 
30 | COc1ccc(C2CC3(N4CCCCC4)CC(=O)C2C(c2ccc(OC)cc2)C3)cc1 (centres undefined) |  |  |  | 4.36 | 10 |  | 
31 | OC1CC2(N3CCCCC3)CC(c3ccc(Cl)cc3)C1C(c1ccc(Cl)cc1)C2 (centres undefined) | 31.32 | 11.6 | 26.34 | 0.37 | 0.44 |  | 
32 | COc1ccc(C2CC3(N4CCCC4)CC(=O)C2C(c2ccc(OC)cc2)C3)cc1 (centres undefined) | 12.44 | 41.9 | 11.34 | 3.37 | 3.7 |  | 
33 | COc1ccc(C2CC3(N(C)C)CC(O)C2C(c2ccc(OC)cc2)C3)cc1 (centres undefined) | 11.53 | 63.4 | 29.5 | 5.5 | 2.15 |  | 
34 | O=C1CC2(N3CCCC3)CC(c3ccccc3)C(N1)C(c1ccccc1)C2 (centres undefined) | 28.43 | > 250 | 6.58 | 8.76 | 37.9 |  | 
35 | CN(C)C12CCNC(C(c3ccc(Cl)cc3)C1)C(c1ccc(Cl)cc1)C2 (centres undefined) | 21.32 | 8.74 | 143.3 | 0.41 | 0.061 | 9 | 
